The values that follow come from patent US20050175550A1, “Compositions for oral use” (priority 2000, published 2005).

Molecules are shown by their SMILES. Converted amounts (≈) assume the structure as drawn.

Common to all, as to assay: MIC by agar plate dilution method on standard strains (Example 3)
Holding throughout (assay type): cell-based
What all share (conditions): read-out: MIC

Experiment [1] relates to Streptococcus pyogenes ATCC12344. As to the method:
(§1) Drug solutions at a concentration 10 times as high as the maximum applicable concentration were prepared as original solutions of test drugs given in Table 2 (as to solvents used for this purpose, reference should be made also to Table 2). Serial two-fold dilution series of the original solutions were prepared at desired stages, and 1 ml each of the diluted drug solutions was added to 9 ml of media given in Table 3 to prepare drug plates. […] • 1) Bacterial solutions stocked at −80° C. were inoculated on agar media (as to media used, reference should be made to Table 3), and then incubated at 37° C. overnight. When desired, subculturing was conducted once more on the same agar media (by overnight incubation at 37° C.). • 2) Colonies growing on the agar media were sampled by a platinum loop, suspended in liquid media (reference should be made to Table 3) and statically incubated at 37° C. for 18 hours (preculturing). • 3) Preculturing was continued up to McFarland 0.5 (McFarland 0.5=about 10^8 CFU/ml), and then the culture broths were diluted with Muellar Hinton Broth to make 10^6 CFU/ml. 5 μl each of the diluted solutions were inoculated on the above-mentioned drug plates by an inoculator Microplanter. […] Thus, bacterial solutions at about 10^8 CFU/ml can be easily prepared by use of McFarland 0.5. Bacterial solutions at such a turbidity are commercially available, but can be easily prepared.

For experiment [2], the system named is Moraxella (Branhamella) catarrhalis ATCC25238. As for the experimental part: as §1
The subject of experiment [3] is Moraxella (Branhamella) catarrhalis ATCC25240. As for the experimental part: as §1
The test system of experiment [4] is Enterococcus faecium ATCC19434. As for the experimental part: as §1
The test system of experiment [5] is Haemophilus influenzae ATCC33533. As to the method: as §1
In experiment [6] the test system is Klebsiella pneumoniae ATCC700603. As to the method: as §1
Experiment [7] concerns Moraxella (Branhamella) catarrhalis ATCC43617. As to the method:
as §1

Experiment [8] deals with Streptococcus pneumoniae ATCC6306. As to the method: as §1
Experiment [9] relates to Escherichia coli ATCC35218. As for the experimental part: as §1
Experiment [10] deals with Bacillus subtilis ATCC6633. As for the experimental part: as §1
In experiment [11] the test system is Streptococcus pneumoniae ATCC6303. As to the method: as §1
For experiment [12], the system named is Staphylococcus aureus ATCC6538P. As for the experimental part: as §1
Experiment [13] deals with Streptococcus pneumoniae ATCC49619. As to the method: as §1
For experiment [14], the system named is Enterococcus faecalis ATCC29247. As for the experimental part: as §1
Experiment [15] concerns Streptococcus pyogenes ATCC12385. As to the method: as §1

`CN(C)[C@@H]1C(O)=C(C(N)=O)C(=O)[C@@]2(O)C(O)=C3C(=O)c4c(O)cccc4[C@@](C)(O)[C@H]3C[C@@H]12` [TC, Tetracycline]: the MIC in experiment [1] was 0.2 µg/mL (≈ 0.45 µM); in experiment [2], 0.2 µg/mL (≈ 0.45 µM); in [3], 0.2 µg/mL (≈ 0.45 µM); in experiment [4], 0.2 µg/mL (≈ 0.45 µM); in experiment [5], 0.39 µg/mL (≈ 0.878 µM); in [6], 50 µg/mL (≈ 113 µM). For the same molecule, the MIC in experiment [7] stood at 0.2 µg/mL (≈ 0.45 µM); in experiment [8] it was 0.2 µg/mL (≈ 0.45 µM); in experiment [9], 1.56 µg/mL (≈ 3.51 µM); in experiment [10], 0.2 µg/mL (≈ 0.45 µM); in [11] it was 0.1 µg/mL (≈ 0.225 µM); in [12] it was 0.2 µg/mL (≈ 0.45 µM). The MIC in experiment [13] came out at 0.1 µg/mL (≈ 0.225 µM); in experiment [14], 25 µg/mL (≈ 56.3 µM); in experiment [15], 0.2 µg/mL (≈ 0.45 µM).
